Patent publication KR20210050472A, “에독사반염 및 이를 포함하는 약제학적 조성물” (priority 2019, dated 2021)
Like-named read-outs stand apart in the source and are kept apart here.

Tests used:
[1] = Heat stability test (Test Example 1), crystal form retention at 40±2℃, 75±5% RH; type: physicochemical; details: for stability of crystal form: 40℃/75% RH
[2] = Stability test in pH solutions (Test Example 2), related substances by HPLC; type: physicochemical; details: for degraded: read-out: amount of related substances generated
[3] = 40℃, 75% RH, from week 8 of the stability test

Compound: CN1CCc2nc(C(=O)N[C@@H]3C[C@@H](C(=O)N(C)C)CC[C@@H]3NC(=O)C(=O)Nc3ccc(Cl)cn3)sc2C1 [말산염 결정형, 에독사반 말산염 결정형, reference compound]
- change in appearance and powder X-ray diffraction values ([1]; 40℃, 75% RH, week 24): 성상 변화 및 분말 X선 회절 값이 변화
- stability of crystal form ([1]; 8 weeks, 말산염): 결정형 유지
- stability of crystal form ([1]; 24 weeks, 말산염): 결정형 변화

Compound: CN1CCc2nc(C(=O)N[C@@H]3C[C@@H](C(=O)N(C)C)CC[C@@H]3NC(=O)C(=O)Nc3ccc(Cl)cn3)sc2C1 [벤젠술폰산염 결정형 Ⅰ형, 에독사반 벤젠술폰산염 결정형 Ⅰ형]
- stability of crystal form ([1]; 8 weeks, 벤젠술폰산염): 결정형 유지
- stability of crystal form ([1]; 16 weeks): 결정형 유지
- stability of crystal form ([1]; 24 weeks, 벤젠술폰산염): 결정형 유지

Compound: CN1CCc2nc(C(=O)N[C@@H]3C[C@@H](C(=O)N(C)C)CC[C@@H]3NC(=O)C(=O)Nc3ccc(Cl)cn3)sc2C1 [벤젠술폰산염 결정형 Ⅱ형, 에독사반 벤젠술폰산염 결정형 Ⅱ형, reference compound]
- change of crystal form [1, 3]: 일부가 결정형 Ⅰ으로 변화
- change of endothermic point by differential scanning calorimetry [1, 3]: 결정형 Ⅰ형의 흡열점이 관찰
- stability of crystal form ([1]; 8 weeks, 벤젠술폰산염): 일부 결정형 Ⅰ형으로 변화

Compound: CN1CCc2nc(C(=O)N[C@@H]3C[C@@H](C(=O)N(C)C)CC[C@@H]3NC(=O)C(=O)Nc3ccc(Cl)cn3)sc2C1 [에디실산염 수화물 결정형, 에독사반 에디실산염 수화물 결정형]
- change in crystal form and appearance ([1]; 40℃, 75% RH, over 24 weeks): 결정형의 변화 및 성상의 변화가 발생하지 않아
- stability of crystal form ([1]; 8 weeks, 에디실산염 수화물): 결정형 유지
- stability of crystal form ([1]; 16 weeks): 결정형 유지
- stability of crystal form ([1]; 24 weeks, 에디실산염 수화물): 결정형 유지
- degraded ([2]; distilled water (DW)): 0.18%
- degraded ([2]; pH 1.2): 19.3%
- degraded ([2]; pH 7.8): 11.4%
- total related substances generated, reduction versus tosylate hydrate ([2]; pH 7.8 solution): ~4.5%
- total related substances generated, compared with tosylate hydrate ([2]; solutions of DW, pH 1.2 and pH 7.8): 총유연물질이 적게 발생
